{
  "source": "patent US20240024273A1",
  "about": "“TOPICAL ADMINISTRATION OF 2-(DIETHYLAMINO)ETHYL 2-(4-ISOBUTYLPHENYL)PROPRIONATE FOR TREATMENT OF DISEASES” (TECHFIELDS PHARMA CO., LTD., priority 2020, published 2024)",
  "system": "Mild to Moderate Osteoarthritis of the Knee",
  "experiment": "Phase 2 study: WOMAC joint stiffness subscale score",
  "format": "in vivo, human",
  "conditions": "for Change of WOMAC Joint Stiffness score from baseline (±SEM), adjusted by […] of the Testing Drug Amount / Percentage of improvement from baseline, WOMAC Joint Stiffness score, adjusted by […] of the Testing Drug Amount / Change of WOMAC Joint Stiffness score from baseline (±SEM) / Percentage of improvement from baseline, WOMAC Joint Stiffness score: 35 mg/knee (BID); for Change of WOMAC Joint Stiffness score from baseline (±SEM) / Percentage of improvement from baseline, WOMAC Joint Stiffness score: all patients taken as active; for WOMAC Joint Stiffness Subscale Score, Avg.: Avg. of all patients; for WOMAC Joint Stiffness Subscale Score, Avg. / WOMAC Joint Stiffness Subscale Score: blinded; for WOMAC Joint Stiffness Subscale Score: individual patient",
  "source_text": "This is a Phase 2, multicenter, randomized, double blind (within dose), placebo controlled, parallel group, proof of concept, and dose range finding study to evaluate the efficacy, safety, and PK of 2-(diethylamino)ethyl 2-(4-isobutylphenyl)propionate hydrochloride spray in adult subjects with clinically symptomatic mild to moderate OA of the knee. For subjects with bilateral knee pain, both knees will be treated, but the most symptomatic knee (i.e., the most painful knee as measured by the Western Ontario and McMaster University Osteoarthritis Index [WOMAC® 3.1] pain subscale score at Screening) will be designated as the target knee for efficacy analyses. For subjects with unilateral knee pain, only the symptomatic (target) knee will be treated.\nAfter a Screening Period of up to 3 weeks and radiographic evaluation of the target knee joint space, a subject will be randomly assigned to 1 of 3 treatment groups in a 1:1:1 ratio with a 2:1 ratio of active:placebo within each treatment group (ie, 2 subjects to active treatment and 1 subject to placebo): • Group A: 8.75 mg 2-(diethylamino)ethyl 2-(4-isobutylphenyl)propionate/knee (2 sprays/knee, one spray to the medial surface and one spray to the lateral surface of the knee), twice daily (BID, approximately every 12 hours; n=50) or placebo (2 sprays/knee), BID (approximately every 12 hours; n=25) for a total of 4 sprays per knee per day; • Group B: 17.5 mg 2-(diethylamino)ethyl 2-(4-isobutylphenyl)propionate/knee (4 sprays/knee, one spray to the medial surface and one spray to the lateral surface of the knee, and one spray to front and one spray to the back of the knee), BID (approximately every 12 hours; n=50) or placebo (4 sprays/knee), BID (approximately every 12 hours; n=25) for a total of 8 sprays per knee per day; • Group C: 35 mg 2-(diethylamino)ethyl 2-(4-isobutylphenyl)propionate/knee (8 sprays/knee, each spray is to be applied to a different non-overlapping area around the knee, and the areas are to be uniformly distributed around the knee), BID (approximately every 12 hours; n=50) or placebo (8 sprays/knee), BID (approximately every 12 hours; n=25) for a total of 16 sprays per knee per day.\nThe VAS version of the WOMAC will be used for the Primary and Secondary Efficacy Endpoints. Efficacy endpoints will be assessed at Screening and Baseline (Day 1) and at the Week 2, Week 4, Week 8, and Week 12/EOS visits.\n3.9.2. Secondary Efficacy Endpoints: • 1. Change from Baseline in the WOMAC (VAS) pain subscale score for the target knee at 2, 4, and 8 weeks of treatment; • 2. Change from Baseline in the WOMAC (VAS) stiffness subscale scores for the target knee and WOMAC (VAS) functional ability subscale scores at 2, 4, 8, and 12 weeks of treatment; • 3. Change from Baseline in the overall WOMAC (VAS) score at 2, 4, 8, and 12 weeks of treatment.\nThe Secondary Efficacy Endpoints, change from Baseline in the WOMAC subscale scores for pain, stiffness, and functional ability, and overall WOMAC score at 2, 4, 8, and 12 weeks of treatment, will be analyzed using the same methods as for the Primary Efficacy Endpoint.\nTo determine this, we assumed that all patients received 2-(diethylamino)ethyl 2-(4-isobutylphenyl)propionate, active drug treatment (i.e. all patients who received 2-(diethylamino)ethyl 2-(4-isobutylphenyl)propionate or placebo treatment for 12 weeks or mixed up treatment during the 12-week treatment, as 2-(diethylamino)ethyl 2-(4-isobutylphenyl)propionate-treated). Based on this assumption, that is, to treat this trial as an open-label study and that all patients received active treatment, we conducted efficacy analysis using top-line efficacy datasets prepared by CRO and the re-analysis results are presented in the following tables (Tables 29-47). […] (William G. Bensen, Justus J. Fiechtner, James 1. McMillen, et. al. Treatment of Osteoarthritis with Celecoxib. Mayo Clin Proc, November 1999. Vol 74, 1095-1105.)",
  "key": {"[1]": {"conditions": "Middle Dose (4 spray/knee, 17.5 mg/knee) Cohort, Day 1"}, "[2]": {"conditions": "Middle Dose (4 spray/knee, 17.5 mg/knee) Cohort, Week 2"}},
  "data": [
    {"smiles": "CCN(CC)CCOC(=O)C(C)c1ccc(CC(C)C)cc1", "note": "(centres unmarked) [2-(diethylamino)ethyl 2-(4-isobutylphenyl)propionate]", "values": [
      {"measurement": "Change of WOMAC Joint Stiffness score from baseline (±SEM), adjusted by […] of the Testing Drug Amount", "setting": "Week 8 (day 56)", "value": "−36.9(±5.8) mm"},
      {"measurement": "Percentage of improvement from baseline, WOMAC Joint Stiffness score, adjusted by […] of the Testing Drug Amount", "setting": "Week 8 (day 56)", "value": "−59.3", "unit": "%"},
      {"measurement": "Change of WOMAC Joint Stiffness score from baseline (±SEM)", "setting": "Week 8 (day 56)", "value": "−21.5(±3.4) mm"},
      {"measurement": "Percentage of improvement from baseline, WOMAC Joint Stiffness score", "setting": "Week 8 (day 56)", "value": "−34.6", "unit": "%"},
      {"measurement": "Change of WOMAC Joint Stiffness score from baseline (±SEM), adjusted by […] of the Testing Drug Amount", "setting": "Week 12 (day 84)", "value": "−41.2(±5.7) mm"},
      {"measurement": "Percentage of improvement from baseline, WOMAC Joint Stiffness score, adjusted by […] of the Testing Drug Amount", "setting": "Week 12 (day 84)", "value": "−66.2", "unit": "%"},
      {"measurement": "Change of WOMAC Joint Stiffness score from baseline (±SEM)", "setting": "Week 12 (day 84)", "value": "−24.0(±3.3) mm"},
      {"measurement": "Percentage of improvement from baseline, WOMAC Joint Stiffness score", "setting": "Week 12 (day 84)", "value": "−38.6", "unit": "%"},
      {"measurement": "reduction of Stiffness WOMAC from baseline to week 12", "setting": "5 patients on second batch active drug kits", "value": "58.6-100%"},
      {"measurement": "WOMAC Joint Stiffness Subscale Score, Avg.", "setting": "35 mg/knee (8 spray/knee), Day 1", "value": 62.1},
      {"measurement": "WOMAC Joint Stiffness Subscale Score, Avg.", "setting": "35 mg/knee (8 spray/knee), Follow-up", "value": 37.7},
      {"measurement": "WOMAC Joint Stiffness Subscale Score, Avg.", "setting": "35 mg/knee (8 spray/knee), Week 2", "value": 50.8},
      {"measurement": "WOMAC Joint Stiffness Subscale Score, Avg.", "setting": "35 mg/knee (8 spray/knee), Week 4", "value": 44.5},
      {"measurement": "WOMAC Joint Stiffness Subscale Score, Avg.", "setting": "35 mg/knee (8 spray/knee), Week 8", "value": 40.6},
      {"measurement": "WOMAC Joint Stiffness Subscale Score, Avg.", "setting": "35 mg/knee (8 spray/knee), Week 12", "value": 38.1},
      {"measurement": "WOMAC Joint Stiffness Subscale Score, Avg.", "setting": "[1]", "value": 68.0},
      {"measurement": "WOMAC Joint Stiffness Subscale Score, Avg.", "setting": "Middle Dose (4 spray/knee, 17.5 mg/knee) Cohort, Follow-up", "value": 41.9},
      {"measurement": "WOMAC Joint Stiffness Subscale Score, Avg.", "setting": "[2]", "value": 49.2},
      {"measurement": "WOMAC Joint Stiffness Subscale Score, Avg.", "setting": "Middle Dose (4 spray/knee, 17.5 mg/knee) Cohort, Week 4", "value": 44.7},
      {"measurement": "WOMAC Joint Stiffness Subscale Score, Avg.", "setting": "Middle Dose (4 spray/knee, 17.5 mg/knee) Cohort, Week 8", "value": 41.5},
      {"measurement": "WOMAC Joint Stiffness Subscale Score, Avg.", "setting": "Middle Dose (4 spray/knee, 17.5 mg/knee) Cohort, Week 12", "value": 38.2},
      {"measurement": "WOMAC Joint Stiffness Subscale, WOMAC VAS Score", "setting": "Patient 1056, second batch active drug kits, Day 1", "value": 48.5, "unit": "mm"},
      {"measurement": "WOMAC Joint Stiffness Subscale, WOMAC VAS Score", "setting": "Patient 1056, second batch active drug kits, Follow Up", "value": 17.0, "unit": "mm"},
      {"measurement": "WOMAC Joint Stiffness Subscale, WOMAC VAS Score", "setting": "Patient 1056, second batch active drug kits, Week 2", "value": 45.0, "unit": "mm"},
      {"measurement": "WOMAC Joint Stiffness Subscale, WOMAC VAS Score", "setting": "Patient 1056, second batch active drug kits, Week 4", "value": 44.5, "unit": "mm"},
      {"measurement": "WOMAC Joint Stiffness Subscale, WOMAC VAS Score", "setting": "Patient 1056, second batch active drug kits, Week 8", "value": 43.5, "unit": "mm"},
      {"measurement": "WOMAC Joint Stiffness Subscale, WOMAC VAS Score", "setting": "Patient 1056, second batch active drug kits, Week 12", "value": 23.5, "unit": "mm"},
      {"measurement": "WOMAC Joint Stiffness Subscale, WOMAC VAS Score", "setting": "Patient 1064, second batch active drug kits, Day 1", "value": 66.5, "unit": "mm"},
      {"measurement": "WOMAC Joint Stiffness Subscale, WOMAC VAS Score", "setting": "Patient 1064, second batch active drug kits, Follow Up", "value": 1.0, "unit": "mm"},
      {"measurement": "WOMAC Joint Stiffness Subscale, WOMAC VAS Score", "setting": "Patient 1064, second batch active drug kits, Week 2", "value": 20.5, "unit": "mm"},
      {"measurement": "WOMAC Joint Stiffness Subscale, WOMAC VAS Score", "setting": "Patient 1064, second batch active drug kits, Week 4", "value": 12.5, "unit": "mm"},
      {"measurement": "WOMAC Joint Stiffness Subscale, WOMAC VAS Score", "setting": "Patient 1064, second batch active drug kits, Week 8", "value": 0.0, "unit": "mm"},
      {"measurement": "WOMAC Joint Stiffness Subscale, WOMAC VAS Score", "setting": "Patient 1064, second batch active drug kits, Week 12", "value": 1.0, "unit": "mm"},
      {"measurement": "WOMAC Joint Stiffness Subscale, WOMAC VAS Score", "setting": "Patient 1535, second batch active drug kits, Day 1", "value": 55.0, "unit": "mm"},
      {"measurement": "WOMAC Joint Stiffness Subscale, WOMAC VAS Score", "setting": "Patient 1535, second batch active drug kits, Follow Up", "value": 0.0, "unit": "mm"},
      {"measurement": "WOMAC Joint Stiffness Subscale, WOMAC VAS Score", "setting": "Patient 1535, second batch active drug kits, Week 2", "value": 3.5, "unit": "mm"},
      {"measurement": "WOMAC Joint Stiffness Subscale, WOMAC VAS Score", "setting": "Patient 1535, second batch active drug kits, Week 4", "value": 3.0, "unit": "mm"},
      {"measurement": "WOMAC Joint Stiffness Subscale, WOMAC VAS Score", "setting": "Patient 1535, second batch active drug kits, Week 8", "value": 3.0, "unit": "mm"},
      {"measurement": "WOMAC Joint Stiffness Subscale, WOMAC VAS Score", "setting": "Patient 1535, second batch active drug kits, Week 12", "value": 0.0, "unit": "mm"},
      {"measurement": "WOMAC Joint Stiffness Subscale, WOMAC VAS Score", "setting": "Patient 1539, second batch active drug kits, Day 1", "value": 70.0, "unit": "mm"},
      {"measurement": "WOMAC Joint Stiffness Subscale, WOMAC VAS Score", "setting": "Patient 1539, second batch active drug kits, Follow Up", "value": 2.0, "unit": "mm"},
      {"measurement": "WOMAC Joint Stiffness Subscale, WOMAC VAS Score", "setting": "Patient 1539, second batch active drug kits, Week 2", "value": 54.5, "unit": "mm"},
      {"measurement": "WOMAC Joint Stiffness Subscale, WOMAC VAS Score", "setting": "Patient 1539, second batch active drug kits, Week 4", "value": 44.0, "unit": "mm"},
      {"measurement": "WOMAC Joint Stiffness Subscale, WOMAC VAS Score", "setting": "Patient 1539, second batch active drug kits, Week 8", "value": 8.0, "unit": "mm"},
      {"measurement": "WOMAC Joint Stiffness Subscale, WOMAC VAS Score", "setting": "Patient 1539, second batch active drug kits, Week 12", "value": 3.0, "unit": "mm"},
      {"measurement": "WOMAC Joint Stiffness Subscale, WOMAC VAS Score", "setting": "Patient 9032, second batch active drug kits, Day 1", "value": 14.5, "unit": "mm"},
      {"measurement": "WOMAC Joint Stiffness Subscale, WOMAC VAS Score", "setting": "Patient 9032, second batch active drug kits, Follow Up", "value": 9.5, "unit": "mm"},
      {"measurement": "WOMAC Joint Stiffness Subscale, WOMAC VAS Score", "setting": "Patient 9032, second batch active drug kits, Week 2", "value": 9.5, "unit": "mm"},
      {"measurement": "WOMAC Joint Stiffness Subscale, WOMAC VAS Score", "setting": "Patient 9032, second batch active drug kits, Week 4", "value": 5.0, "unit": "mm"},
      {"measurement": "WOMAC Joint Stiffness Subscale, WOMAC VAS Score", "setting": "Patient 9032, second batch active drug kits, Week 8", "value": 3.0, "unit": "mm"},
      {"measurement": "WOMAC Joint Stiffness Subscale, WOMAC VAS Score", "setting": "Patient 9032, second batch active drug kits, Week 12", "value": 6.0, "unit": "mm"},
      {"measurement": "WOMAC Joint Stiffness Subscale Score", "setting": "[1]", "value": 64.5},
      {"measurement": "WOMAC Joint Stiffness Subscale Score", "setting": "[2]", "value": 62.0}
    ]}
  ]
}
